Our source for the EC50 values is patent US20070179143A1 (priority 2003, published 2007).

Structures are written as SMILES.

Series [1] relates to SK-OV-3. Description: Cytotoxicity test to cancer cell lines (SRB method), SK-OV-3. Format: cell-based. To be noted: Homo sapiens, SK-OV-3, 48 h, read-out: Cytotoxicity ED50 SK-OV-3. For orientation: The SRB assay estimates cell density from bound dye.
Series [2] relates to SK-MEL-2. Description: Cytotoxicity test to cancer cell lines (SRB method), SK-MEL-2. It is filed as cell-based. To be noted: Homo sapiens, SK-MEL-2, 48 h, read-out: Cytotoxicity ED50 SK-MEL-2.
The subject of series [3] is A549. The experiment in a line: Cytotoxicity test to cancer cell lines (SRB method), A549. Particulars: Homo sapiens, A549, 48 h, read-out: Cytotoxicity ED50 A549.
Description: (§1) Cytotoxicity to A549 (Korea Research Institute of Chemical Technology), SK-OV-3 (Korea Research Institute of Chemical Technology), SK-MEL-2 (Korea Research Institute of Chemical Technology), HCT-15 (Korea Research Institute of Chemical Technology) and MCF7 (Korean Cell Line Bank, Seoul National University School of medicine) cells was measured by Sulforhodamin-B (SRB) method (1989, National Cancer Institute (NCI)) which was developed for the measurement of in vitro anticancer activity of a drug. Cells were separated using 0.25% trypsin-EDTA solution, leading to the preparation of a cell suspension by 5×10^318 2×10^4 cells/well. Then, the suspension was distributed into a 96 well plate by 100 μl/well, which was cultured in a 37° C., 5% CO2 incubator for 24 hours. Compounds prepared in examples of the present invention were used as a sample. Precisely, the compound was dissolved in dimethylsulfoxide and diluted with RPMI 1640 medium before being used as a sample. The final concentration of the sample used varied ranging 1 μM˜0.00001 μM. The medium was removed from the 96 well plate and then diluted sample solution was added by 100 μl/well, followed by further culture in a 37° C., 5% CO2 incubator for 48 hours. Tz (time zero) plate was collected from the point of adding the sample. Upon completing the culture, the medium was removed from each well along with Tz plate, then 10% trichloroacetic acid (TCA) was added by 100 μl/well. The plate was left at 4° C. for 1 hour to let cells be fixed on the floor of the plate. After cells were fixed completely, the plate was washed with water 5-6 times to remove the remaining trichloroacetic acid solution completely and moisture was completely dried at room temperature. 0.4% Sulforhodamine-B was dissolved in 1% acetic acid solution to prepare a staining solution. Cells were stained for 30 minutes with a dye added by 100 μl to each well of the completely dried plate. Then, the plate was washed with 1% acetic acid solution 5-6 times to remove sulforhodamine-B remained uncombined with cells. Then, the plate was dried at room temperature. 10 mM Tris solution was added by 100 μ/well thereto to dissolve the dye, and optical density (OD) was measured at 520 nm with a micro plate reader.
(§2) ED50 (concentration that inhibits cancer cell growth 50%, 5.0% effective dose, nM/ml) of the sample to cancer cell was calculated as follows. OD value at the point of beginning the culture with the sample was determined as Tz (time zero) value. OD value of a well to be cultured without the sample was determined as a control value (C). OD value of a well pretreated with the sample was determined as experimental value (T). After calculating Tz, C and T, cytotoxicity of the sample was measured by the below <Mathematical Formula 1>. T≦Tz, (T−Tz)/(C−Tz)×100 T>Tz, (T−Tz)/Tz×10,0 <Mathematical Formula 1>
(§3) ED50, the concentration that can inhibit cancer cell growth by 50%, was calculated by using a regression analysis of lotus program based on the degree of cytotoxicity obtained by the <Mathematical Formula 1>.
Series [4] concerns MCF7. The experiment in a line: Cytotoxicity test to cancer cell lines (SRB method), MCF7. Particulars: read-out: Cytotoxicity ED50 MCF-7, MCF-7, 48 hours.
Series [5] relates to HCT-15. The experiment in a line: Cytotoxicity test to cancer cell lines (SRB method), HCT-15. To be noted: Homo sapiens, HCT-15, 48 h, read-out: Cytotoxicity ED50 HCT15.
Description: as §1, §2, §3

Take `COc1c(OC2CCCC2)cc2c(c1OC)-c1ccc(SC)c(=O)cc1[C@@H](NC(=O)c1cccc(CO[N+](=O)[O-])c1)CC2` [Example 7, N-[(7S)-3-cyclopentyloxy-1,2-dimethoxy-10-methylsulfanyl-9-oxo-5,6,7,9-tetrahydro-benzo[a]heptalen-7-yl]-3-nitrooxymethyl-benzamide]: the EC50 in series [1], in series [2], in series [3], in series [4] and in series [5] was above 50 nM each time.
`COc1c(OC(C)C)cc2c(c1OC)-c1ccc(SC)c(=O)cc1[C@@H](NC(=O)c1cccc(CO[N+](=O)[O-])c1F)CC2` [Example 9, 2-fluoro-N-[(7S)-3-isopropoxy-1,2-dimethoxy-10-methylsulfanyl-9-oxo-5,6,7,9-tetrahydro-benzo[a]heptalen-7-yl]-3-nitrooxymethyl-benzamide]: the EC50 in series [1] turned out to be 0.34 nM; in series [2], 0.22 nM; in series [3], 0.49 nM; in series [4], 0.13 nM; in series [5], 0.64 nM.
On the same counts, the results for `COc1cc2c(c(OC)c1OC)-c1ccc(SC)c(=O)cc1[C@@H](NC(=O)c1cccc(CO[N+](=O)[O-])c1F)CC2` [Example 10, 2-fluoro-3-nitrooxymethyl-N-[(7S)-1,2,3-trimethoxy-10-methylsulfanyl-9-oxo-5,6,7,9-tetrahydro-benzo[a]heptalen-7-yl]-benzamide] are 0.23 nM, 0.12 nM, 0.28 nM, 0.09 nM and 0.39 nM.
Consider `COc1c(OC2CCCC2)cc2c(c1OC)-c1ccc(SC)c(=O)cc1[C@@H](NC(=O)c1cccc(CO[N+](=O)[O-])c1F)CC2` [Example 11, N-[(7S)-3-cyclopentyloxy-1,2-dimethoxy-10-methylsulfanyl-9-oxo-5,6,7,9-tetrahydro-benzo[a]heptalen-7-yl]-2-fluoro-3-nitrooxymethyl-benzamide], for which the EC50 in series [1] was above 50 nM; in series [2], above 50 nM; in series [3], above 50 nM; in series [4], 39 nM; in series [5] it was above 50 nM.
Take `CCOc1cc2c(c(OC)c1OC)-c1ccc(SC)c(=O)cc1[C@@H](NC(=O)c1cc(F)cc(CO[N+](=O)[O-])c1)CC2` [Example 13, N-[(7S)-3-ethoxy-1,2-dimethoxy-10-methylsulfanyl-9-oxo-5,6,7,9-tetrahydro-benzo[a]heptalen-7-yl)-3-fluoro-5-nitrooxymethyl-benzamide]: the EC50 came out at 0.18 nM in series [1]; 0.04 nM in series [2]; 0.13 nM in series [3]; 0.02 nM in series [4]; 0.11 nM in series [5].
For `COc1c(OC(C)C)cc2c(c1OC)-c1ccc(SC)c(=O)cc1[C@@H](NC(=O)c1cc(F)cc(CO[N+](=O)[O-])c1)CC2` [Example 14, 3-fluoro-N-[(7S)-3-isopropoxy-1,2-dimethoxy-10-methylsulfanyl-9-oxo-5,6,7,9-tetrahydro-benzo[a]heptalen-7-yl]-5-nitrooxymethyl-benzamide], the EC50 worked out at 30.6 nM in series [1]; 32.8 nM in series [2]; 28.2 nM in series [3]; 11.2 nM in series [4]; 9.9 nM in series [5].
On the same counts, the results for `COc1c(OC2CCCC2)cc2c(c1OC)-c1ccc(SC)c(=O)cc1[C@@H](NC(=O)c1cc(F)cc(CO[N+](=O)[O-])c1)CC2` [Example 15, N-[(7S)-3-cyclopentyloxy-1,2-dimethoxy-10-methylsulfanyl-9-oxo-5,6,7,9-tetrahydro-benzo[a]heptalen-7-yl]-3-fluoro-5-nitrooxymethyl-benzamide] are above 50 nM, 22.5 nM, 30.2 nM, 18.8 nM and 23.4 nM.
As to `COc1cc2c(c(OC)c1OC)-c1ccc(SC)c(=O)cc1[C@@H](NC(=O)c1cc(CO[N+](=O)[O-])ccc1F)CC2` [Example 17, 2-fluoro-5-nitrooxymethyl-N-[(7S)-1,2,3-trimethoxy-10-methylsulfanyl-9-oxo-5,6,7,9-tetrahydro-benzo[a]heptalen-7-yl]-benzamide], the EC50 worked out at 0.19 nM in series [1]; 0.17 nM in series [2]; 0.21 nM in series [3]; 0.08 nM in series [4]; 0.19 nM in series [5].
`COc1cc2c(c(OC)c1OC)-c1ccc(SC)c(=O)cc1[C@@H](NC(=O)c1cc(CO[N+](=O)[O-])cc(CO[N+](=O)[O-])c1)CC2` [Example 19, 3,5-bis-nitrooxymethyl-N-[(7S)-1,2,3-trimethoxy-10-methylsulfanyl-9-oxo-5,6,7,9-tetrahydro-benzo[a]heptalen-7-yl]-benzamide]: the EC50 came to 34.8 nM in series [1]; 31 nM in series [2]; 23.5 nM in series [3]; 8.2 nM in series [4]; 10.1 nM in series [5].
Regarding `COc1cc2c(c(OC)c1OC)-c1ccc(SC)c(=O)cc1[C@@H](NC(=O)c1ccc(CO[N+](=O)[O-])cc1O)CC2` [Example 20, 2-hydroxy-4-nitrooxymethyl-N-[(7S)-1,2,3-trimethoxy-10-methylsulfanyl-9-oxo-5,6,7,9-tetrahydro-benzo[a]heptalen-7-yl]-benzamide], the EC50 in series [1] came out at 1.83 nM; in series [2], 2.47 nM; in series [3] it was 3.93 nM; in series [4], 1.15 nM; in series [5], 1.03 nM.
`COc1cc2c(c(OC)c1OC)-c1ccc(SC)c(=O)cc1[C@@H](NC(=O)c1cc(CO[N+](=O)[O-])cs1)CC2` [Example 21, 4-nitrooxymethyl-thiophene-2-carboxylic acid [(7S)-1,2,3-trimethoxy-10-methylsulfanyl-9-oxo-5,6,7,9-tetrahydro-benzo[a]heptalen-7-yl]-amide]: the EC50 in series [1] was 0.59 nM; in series [2] it was 0.29 nM; in series [3] it was 0.97 nM; in series [4], 0.1 nM; in series [5] it was 0.13 nM.
Consider `COc1cc2c(c(OC)c1OC)-c1ccc(SC)c(=O)cc1[C@@H](NC(=O)c1sccc1CO[N+](=O)[O-])CC2` [Example 22, 3-nitrooxymethyl-thiophene-2-carboxylic acid [(7S)-1,2,3-trimethoxy-10-methylsulfanyl-9-oxo-5,6,7,9-tetrahydro-benzo[a]heptalen-7-yl]-amide], for which the EC50 in series [1] stood at 1.41 nM; in series [2], 0.87 nM; in series [3], 1.11 nM; in series [4] it was 0.21 nM; in series [5], 0.95 nM.
For `COc1cc2c(c(OC)c1OC)-c1ccc(SC)c(=O)cc1[C@@H](NC(=O)Cc1cccc(CO[N+](=O)[O-])c1)CC2` [Example 23, 2-(3-nitrooxymethyl-phenyl)-N-[(7S)-1,2,3-trimethoxy-10-methylsulfanyl-9-oxo-5,6,7,9-tetrahydro-benzo[a]heptalen-7-yl]-acetamide], the EC50 came out at 5.6 nM in series [1]; 3.5 nM in series [2]; 5.4 nM in series [3]; 3.3 nM in series [4]; 3.4 nM in series [5].
